Assay results reported in US7087642B2 (priority 1999, dated 2006).
Where two headings read alike, the source gives them in different places.

Legend:
IMPDH human type II = IMPDH human type II (Homo sapiens, UniProt P12268); assay: biochemical
human PBMC T cells = assay: cells; assay type: cell-based; details: read-out: T-cells (IC50)
human PBMC B cells = assay: cells; assay type: cell-based; details: read-out: B-cells (IC50)

SMILES	Ki (IMPDH human type II) [nM]	IC50 (human PBMC T cells; Homo sapiens, 72 h) [nM]	IC50 (human PBMC B cells; Homo sapiens, 72 h) [nM]	Ki (IMPDH human type II; read-out: Ki) [nM]	IC50 (human PBMC T cells) [nM]	IC50 (human PBMC B cells) [nM]
COc1cc(NC(=O)Nc2cccc(CNC(=O)OC(CC[N+](C)(C)C)c3ccccc3)c2)ccc1-c1cnco1 (stereo not drawn) [Compound 36]	< 10	> 1000	> 1000			
CCN(CC)CCC(OC(=O)NCc1cccc(NC(=O)Nc2ccc(-c3cnco3)c(OC)c2)c1)C(F)(F)F (stereo not drawn) [Compound 37]		100 to 1000	100 to 1000	< 10		
CCCC(COC)OC(=O)NCc1cccc(NC(=O)Nc2ccc(-c3cnco3)c(OC)c2)c1 (stereo not drawn) [Compound 38]		100 to 1000	100 to 1000	< 10		
COc1cc(NC(=O)Nc2cccc(CNC(=O)O[C@H](CCN(C)C)c3ccccc3)c2)ccc1-c1cnco1 [Compound 39]				< 10	100 to 1000	100 to 1000
COc1cc(NC(=O)Nc2cccc(CNC(=O)OC(CC#N)C(C)C)c2)ccc1-c1cnco1 (stereo not drawn) [Compound 40]		> 1000	100 to 1000	< 10		
COCC(C)OC(=O)NCc1cccc(NC(=O)Nc2ccc(-c3cnco3)c(OC)c2)c1 (stereo not drawn) [Compound 41]		100 to 1000	100 to 1000	< 10		
CCC(COC)OC(=O)NCc1cccc(NC(=O)Nc2ccc(-c3cnco3)c(OC)c2)c1 (stereo not drawn) [Compound 42]		100 to 1000	100 to 1000	< 10		
CCC(CCO)OC(=O)NCc1cccc(NC(=O)Nc2ccc(-c3cnco3)c(OC)c2)c1 (stereo not drawn) [Compound 43]		100 to 1000	100 to 1000	< 10		
CCC(CCCO)OC(=O)NCc1cccc(NC(=O)Nc2ccc(-c3cnco3)c(OC)c2)c1 (stereo not drawn) [Compound 44]		100 to 1000	100 to 1000	< 10		
COc1cc(NC(=O)Nc2cccc(CNC(=O)OC(CCO)CCC#N)c2)ccc1-c1cnco1 (stereo not drawn) [Compound 45]		100 to 1000	100 to 1000	< 10		
COc1cc(NC(=O)Nc2cccc(CNC(=O)OC(CC#N)C(C)(C)C)c2)ccc1-c1cnco1 (stereo not drawn) [Compound 46]		100 to 1000	100 to 1000	< 10		
COc1cc(NC(=O)Nc2cccc(CNC(=O)O[C@H](C)CCC#N)c2)ccc1-c1cnco1 [Compound 47]		100 to 1000	100 to 1000	< 10		
COc1cc(NC(=O)Nc2cccc(CNC(=O)OC(CCN3CCOCC3)c3ccccc3)c2)ccc1-c1cnco1 (stereo not drawn) [Compound 48]		100 to 1000	100 to 1000	< 10		
CCC(CCCCO)OC(=O)NCc1cccc(NC(=O)Nc2ccc(-c3cnco3)c(OC)c2)c1 (stereo not drawn) [Compound 49]		100 to 1000	100 to 1000	< 10		
COc1cc(NC(=O)Nc2cccc(CNC(=O)OC(CCN3CCCCC3)c3ccccc3)c2)ccc1-c1cnco1 (stereo not drawn) [Compound 50]		> 1000	> 1000	< 10		
COc1cc(NC(=O)Nc2cccc(CNC(=O)O[C@H](CN3CCOCC3)c3ccccc3)c2)ccc1-c1cnco1 [Compound 51]		100 to 1000	100 to 1000	< 10		
COc1cc(NC(=O)Nc2cccc(CNC(=O)O[C@@H](CN3CCOCC3)c3ccccc3)c2)ccc1-c1cnco1 [Compound 52]		> 1000	> 1000	< 10		
COc1cc(NC(=O)Nc2cccc(CNC(=O)O[C@@H](CO)CCC#N)c2)ccc1-c1cnco1 [Compound 57]		100 to 1000	100 to 1000	< 10		
COc1cc(NC(=O)Nc2cccc(CNC(=O)OCCCOC(C)=O)c2)ccc1-c1cnco1 [Compound 58]		100 to 1000	100 to 1000	< 10		
COc1cc(NC(=O)Nc2cccc(CNC(=O)O[C@H](CO)CCC#N)c2)ccc1-c1cnco1 [Compound 59]		> 1000	100 to 1000	< 10		
CC[C@H](CO)OC(=O)NCc1cccc(NC(=O)Nc2ccc(-c3cnco3)c(OC)c2)c1 [Compound 60]		100 to 1000	100 to 1000	< 10		
CC[C@@H](CO)OC(=O)NCc1cccc(NC(=O)Nc2ccc(-c3cnco3)c(OC)c2)c1 [Compound 61]		100 to 1000	100 to 1000	< 10		

SMILES	Ki (IMPDH human type II) [nM]	IC50 (human PBMC T cells; Homo sapiens, 72 h) [nM]	IC50 (human PBMC B cells; Homo sapiens, 72 h) [nM]	Ki (IMPDH human type II; read-out: Ki) [nM]	IC50 (human PBMC T cells) [nM]	IC50 (human PBMC B cells) [nM]
COc1cc(NC(=O)Nc2cccc(CNC(=O)O[C@@H](CO)CC#N)c2)ccc1-c1cnco1 [Compound 62]		100 to 1000	100 to 1000	< 10		
COc1cc(NC(=O)Nc2cccc(CNC(=O)O[C@H](CO)CC#N)c2)ccc1-c1cnco1 [Compound 63]		100 to 1000	100 to 1000	< 10		
CCC(CCN1CCOCC1)OC(=O)NCc1cccc(NC(=O)Nc2ccc(-c3cnco3)c(OC)c2)c1 (stereo not drawn) [Compound 65]		100 to 1000	100 to 1000	< 10		
CCN(CC)C[C@H](OC(=O)NCc1cccc(NC(=O)Nc2ccc(-c3cnco3)c(OC)c2)c1)c1ccccc1 [Compound 66]		> 1000	> 1000	< 10		
CCN(CC)C[C@@H](OC(=O)NCc1cccc(NC(=O)Nc2ccc(-c3cnco3)c(OC)c2)c1)c1ccccc1 [Compound 67]		100 to 1000	100 to 1000	< 10		
CC[C@H](CCO)OC(=O)NCc1cccc(NC(=O)Nc2ccc(-c3cnco3)c(OC)c2)c1 [Compound 68]				< 10	100 to 1000	100 to 1000
CC[C@@H](CCO)OC(=O)NCc1cccc(NC(=O)Nc2ccc(-c3cnco3)c(OC)c2)c1 [Compound 69]				< 10	100 to 1000	100 to 1000
COc1cc(NC(=O)Nc2cccc(CNC(=O)OC3COCC3OCC(=O)OC(C)(C)C)c2)ccc1-c1cnco1 (stereo not drawn) [Compound 70]				< 10	> 1000	> 1000
COc1cc(NC(=O)Nc2cccc(CNC(=O)OC3COCC3OCC(=O)O)c2)ccc1-c1cnco1 (stereo not drawn) [Compound 71]		> 1000	> 1000	< 10		
COc1cc(NC(=O)Nc2cccc(CNC(=O)OC3COCC3OCC(=O)OC(C)(C)C)c2)ccc1-c1cnco1 (stereo not drawn) [Compound 72]				< 10	100 to 1000	100 to 1000
COc1cc(NC(=O)Nc2cccc(CNC(=O)OC3COCC3OCC(=O)O)c2)ccc1-c1cnco1 (stereo not drawn) [Compound 73]				< 10	> 1000	> 1000
COc1cc(NC(=O)Nc2cccc(CNC(=O)Oc3cccc(/C=C/C(=O)OC(C)(C)C)c3)c2)ccc1-c1cnco1 [Compound 74]	< 10	> 1000	> 1000			
COc1cc(NC(=O)Nc2cccc(CNC(=O)OC3COCC3OCC#N)c2)ccc1-c1cnco1 (stereo not drawn) [Compound 75]		100 to 1000	100 to 1000	< 10		
COc1cc(NC(=O)Nc2cccc(CNC(=O)OC3COCC3OCC#N)c2)ccc1-c1cnco1 (stereo not drawn) [Compound 76]				< 10	< 100	< 100
COc1cc(NC(=O)Nc2cccc(CNC(=O)O[C@@H]3CCN(S(=O)(=O)N(C)C)C3)c2)ccc1-c1cnco1 [Compound 77]		100 to 1000	100 to 1000	< 10		
COc1cc(NC(=O)Nc2cccc(CNC(=O)O[C@@H]3C=C[C@H](OC(C)=O)C3)c2)ccc1-c1cnco1 [Compound 78]		100 to 1000	100 to 1000	< 10		
COc1cc(NC(=O)Nc2cccc(CNC(=O)OC(CC#N)C(F)(F)F)c2)ccc1-c1cnco1 (stereo not drawn) [Compound 79]		100 to 1000	100 to 1000	< 10		
CCN(CC)CC(CO)OC(=O)NCc1cccc(NC(=O)Nc2ccc(-c3cnco3)c(OC)c2)c1 (stereo not drawn) [Compound 80]		100 to 1000	100 to 1000	< 10		
CC[C@H](CC#N)OC(=O)NCc1cccc(NC(=O)Nc2ccc(-c3cnco3)c(OC)c2)c1 [Compound 81]		100 to 1000	100 to 1000	10 to 50		
CC[C@@H](CC#N)OC(=O)NCc1cccc(NC(=O)Nc2ccc(-c3cnco3)c(OC)c2)c1 [Compound 82]		100 to 1000	100 to 1000	> 50		
CC[C@H](CCC#N)OC(=O)NCc1cccc(NC(=O)Nc2ccc(-c3cnco3)c(OC)c2)c1 [Compound 83]		100 to 1000	100 to 1000	10 to 50		
CCC(CN1CC[S+]([O-])CC1)OC(=O)NCc1cccc(NC(=O)Nc2ccc(-c3cnco3)c(OC)c2)c1 (stereo not drawn) [Compound 84]		100 to 1000	100 to 1000	10 to 50		
